{
  "source": "paper PMC539285",
  "about": "“Anti-Plasmodium activity of ceramide analogs” (Malaria Journal, 2004)",
  "key": {"erythrocytes": {"test_system": "erythrocytes", "experiment": "Lysis of normal and infected erythrocytes", "type": "cell-based, human", "conditions": "250 nM, 48 hours", "description": "By their lipidic nature, these analogs might act through a detergent effect that could lead to lysis or modification of the integrity of infected-erythrocyte membranes. This apparently is not the case. No significant lysis of normal erythrocytes was observed after 48 hous of incubation with concentrations of analogs up to 10 μM (data not shown)."}, "P. falciparum": {"test_system": "P. falciparum", "experiment": "Apoptosis of parasites (TdT DNA fragmentation assay, gel electrophoresis, fluorescence microscopy)", "type": "cell-based, Plasmodium falciparum", "conditions": "1 μM for up to 36 hours (unpublished data, preliminary)", "from_the_text": "Ceramide is at the parting of different ways of sphingolipid metabolism. Analogs have the potential to inhibit different ceramide-metabolizing enzymes and then might have a pleiotropic effect. Ceramide analogs in amide linkage were described as potent inhibitors of alkaline ceramidase in HL60 human myeloid leukemic cells. Methylene analogs inhibit the biosynthesis of SPM and glycosphingolipids in HL60 cells, and acid ceramidase in vitro [10]. When applied to cancer cells, such analogs induced an elevation of the endogenous level of ceramide with the consequent effects of growth suppression and cell death by apoptosis. […] Apoptosis in P. falciparum is still controversial although some characteristics of apoptosis has been described in Plasmodium. […] The hypothesis that AD2646 induced parasite death through modulation of endogenous ceramide level, as observed for cancer cells, is under investigation."}, "[1]": {"test_system": "tubovesicular network of P. falciparum", "experiment": "Tubovesicular network formation, BODIPY-FL-C5-ceramide fluorescence microscopy", "type": "cell-based, Plasmodium falciparum", "description": "Infected erythrocytes treated with or without ceramide analogs were incubated for 30 min, at 37°C, in culture medium containing 10 μM BODIPY-FL-C5-ceramide, washed three times with culture medium without serum and fixed overnight, at 4°C, in 3.7% formaldehyde/0.05% glutaraldehyde. Cells were mounted on poly-L-lysine coated slides and viewed using a Nikon Eclipse TE 300 DV inverted microscope with an 100X oil objective mounted on a piezzo electric device using appropriate fluorescence emission filters. Image acquisition (z-series) was performed with a back illuminated cooled detector (CCD EEV: NTE/CCD-1024-EB, Roper Scientific, France) using a 0.2 μm step. Data acquisition and image deconvolution process were performed with Metamorph software (Universal Imaging Corporation, Roper Scientific, France). The images presented correspond to the maximum intensity projection of the deconvoluted z-series."}, "[2]": {"test_system": "malaria-induced anion channel", "experiment": "Malaria-induced anion channel activity, whole-cell patch-clamp", "type": "cell-based, Plasmodium falciparum", "conditions": "infected erythrocytes, 24 hours, 250 nM AD2646 or 10 μM PPMP, whole-cell patch-clamp (unpublished data)", "from_the_text": "Sphingolipids preferentially interact with cholesterol in membranes, especially in detergent-resistant microdomains (DRMs or rafts). Rafts have been described in Plasmodium and are involved, at least, in the uptake of erythrocyte raft proteins and maintenance of the parasitophorous vacuole containing the parasite, inside the erythrocyte. This interaction implies : 1) van der Waals interactions between the saturated acyl chain and sphingoid moiety of sphingolipids and the rigid planar tetracyclic rings of cholesterol and 2) hydrogen bonds between the 3-β hydroxyl group of cholesterol and the fatty acyl carbonyl group resulting from the amide linkage with the sphingoid moiety. The amide-linked fatty acid function seems to have a profound stabilizing effect on cholesterol-sphingolipid interactions. It could be hypothesized that in a membrane context, methylene analogs might have a destabilizing effect on the cholesterol-sphingolipid interactions and, in consequence, modifications of membrane properties. Indeed, P. falciparum growth is characterized by a setting up of new permeabilities of the infected-erythrocyte membrane. Although the biochemical nature of these new permeabilities is still unknown, they have been characterized from an electrophysiological point of view and involve a malaria-induced anion channel. […]"}},
  "data": [
    {"molecule": "CCCCCCCCCCCCCCN[C@H](CO)[C@H](O)c1ccc([N+](=O)[O-])cc1", "note": "[AD2646]", "values": [
      {"measurement": "parasite growth", "setting": "erythrocytes", "result": "inhibiting parasite growth totally"},
      {"measurement": "lysis of infected erythrocytes", "setting": "erythrocytes; infected cultures, Giemsa-stained smears", "result": "no preferential lysis of infected-erythrocytes"},
      {"measurement": "apoptosis of parasites", "setting": "P. falciparum", "result": "failed to exhibit characteristic apoptosis"},
      {"measurement": "parasite development", "setting": "[1]; 60 nM", "result": "blocks irreversibly the parasite development"},
      {"measurement": "TVN formation", "setting": "[1]; rings incubated 24 hours with 60 nM AD2646 or 5 μM PPMP", "result": "TVN was distinctly observed"},
      {"measurement": "induced anion channel activity", "setting": "[2]", "result": "did not modulate significantly the induced channel activity"}
    ]}
  ]
}
